Source: US20050004134A1, “Thiazole derivative and pharmaceutical use thereof” (priority 2001, published 2005)

Row | Structure (SMILES) | melting point
1 | CC(C)n1nc(-c2sc(NC(=O)c3ccc(CN(C)C)cc3)nc2-c2ccccc2)ccc1=O [Example 28, 4-[(Dimethylamino)methyl]-N-[5-(1-isopropyl-6-oxo-1,6-dihydro-3-pyridazinyl)-4-phenyl-1,3-thiazol-2-yl]benzamide] | 246 to 248 °C
2 | CC(C)n1nc(-c2sc(NC(=O)c3ccc4ccccc4c3)nc2-c2ccccc2)ccc1=O [Example 30, N-[5-(1-Isopropyl-6-oxo-1,6-dihydro-3-pyridazinyl)-4-phenyl-1,3-thiazol-2-yl]-2-naphthamide] | 227 to 229 °C
3 | CC(C)n1nc(-c2sc(NC(=O)c3cccc4ccccc34)nc2-c2ccccc2)ccc1=O [Example 31, N-[5-(1-Isopropyl-6-oxo-1,6-dihydro-3-pyridazinyl)-4-phenyl-1,3-thiazol-2-yl]-1-naphthamide] | 223 to 224 °C
4 | CC(C)n1nc(-c2sc(NC(=O)N3CCOCC3)nc2-c2ccccc2)ccc1=O [Example 32, N-[5-(1-Isopropyl-6-oxo-1,6-dihydro-3-pyridazinyl)-4-phenyl-1,3-thiazol-2-yl]-4-morpholinecarboxamide] | 231 to 232 °C
5 | CC(C)n1nc(-c2sc(NC(=O)C3CC3)nc2-c2ccccc2)ccc1=O [Example 33, N-[5-(1-Isopropyl-6-oxo-1,6-dihydro-3-pyridazinyl)-4-phenyl-1,3-thiazol-2-yl]cyclopropanecarboxamide] | 226 to 227 °C
6 | Cc1ccccc1C(=O)Nc1nc(-c2ccccc2)c(-c2ccc(=O)n(C(C)C)n2)s1 [Example 34, N-[5-(1-Isopropyl-6-oxo-1,6-dihydro-3-pyridazinyl)-4-phenyl-1,3-thiazol-2-yl]-2-methylbenzamide] | 221 to 222 °C
7 | CC(C)n1nc(-c2sc(NC(=O)c3cccc(Cl)c3)nc2-c2ccccc2)ccc1=O [Example 35, 3-Chloro-N-[5-(1-isopropyl-6-oxo-1,6-dihydro-3-pyridazinyl)-4-phenyl-1,3-thiazol-2-yl]benzamide] | 173 to 174 °C
8 | CC(C)n1nc(-c2sc(NC(=O)c3cccc(F)c3)nc2-c2ccccc2)ccc1=O [Example 36, 3-Fluoro-N-[5-(1-isopropyl-6-oxo-1,6-dihydro-3-pyridazinyl)-4-phenyl-1,3-thiazol-2-yl]benzamide] | 183 to 184 °C
9 | CC(C)n1nc(-c2sc(NC(=O)c3ccccc3F)nc2-c2ccccc2)ccc1=O [Example 37, 2-Fluoro-N-[5-(1-isopropyl-6-oxo-1,6-dihydro-3-pyridazinyl)-4-phenyl-1,3-thiazol-2-yl]benzamide] | 251 to 252 °C
10 | CC(C)n1nc(-c2sc(NC(=O)c3cccc(C(F)(F)F)c3)nc2-c2ccccc2)ccc1=O [Example 38, N-[5-(1-Isopropyl-6-oxo-1,6-dihydro-3-pyridazinyl)-4-phenyl-1,3-thiazol-2-yl]-3-(trifluoromethyl)benzamide] | 237 to 238 °C
11 | CC(C)n1nc(-c2sc(NC(=O)c3ccc(C(F)(F)F)cc3)nc2-c2ccccc2)ccc1=O [Example 39, N-[5-(1-Isopropyl-6-oxo-1,6-dihydro-3-pyridazinyl)-4-phenyl-1,3-thiazol-2-yl]-4-(trifluoromethyl)benzamide] | 162 to 167 °C
12 | CC(C)n1nc(-c2sc(NC(=O)c3ccccc3C(F)(F)F)nc2-c2ccccc2)ccc1=O [Example 40, N-[5-(1-Isopropyl-6-oxo-1,6-dihydro-3-pyridazinyl)-4-phenyl-1,3-thiazol-2-yl]-2-(trifluoromethyl)benzamide] | 219 to 220 °C
13 | COc1ccccc1C(=O)Nc1nc(-c2ccccc2)c(-c2ccc(=O)n(C(C)C)n2)s1 [Example 41, N-[5-(1-Isopropyl-6-oxo-1,6-dihydro-3-pyridazinyl)-4-phenyl-1,3-thiazol-2-yl]-2-methoxybenzamide] | > 250 °C
14 | Cc1cccc(C(=O)Nc2nc(-c3ccccc3)c(-c3ccc(=O)n(C(C)C)n3)s2)c1 [Example 42, N-[5-(1-Isopropyl-6-oxo-1,6-dihydro-3-pyridazinyl)-4-phenyl-1,3-thiazol-2-yl]-3-methylbenzamide] | 198 to 199 °C
15 | CC(C)n1nc(-c2sc(NC(=O)c3cc(C(F)(F)F)cc(C(F)(F)F)c3)nc2-c2ccccc2)ccc1=O [Example 44, N-[5-(1-Isopropyl-6-oxo-1,6-dihydro-3-pyridazinyl)-4-phenyl-1,3-thiazol-2-yl]-3,5-bis(trifluoromethyl)benzamide] | 207 to 208 °C
16 | COc1ccc(C(=O)Nc2nc(-c3ccccc3)c(-c3ccc(=O)n(C(C)C)n3)s2)cc1 [Example 45, N-[5-(1-Isopropyl-6-oxo-1,6-dihydro-3-pyridazinyl)-4-phenyl-1,3-thiazol-2-yl]-4-methoxybenzamide] | 219 to 221 °C
17 | CC(C)n1nc(-c2sc(NC(=O)c3ccccc3Cl)nc2-c2ccccc2)ccc1=O [Example 46, 2-Chloro-N-[5-(1-isopropyl-6-oxo-1,6-dihydro-3-pyridazinyl)-4-phenyl-1,3-thiazol-2-yl]benzamide] | 220 to 221 °C
18 | CC(C)n1nc(-c2sc(NC(=O)c3ccc(Cl)cc3)nc2-c2ccccc2)ccc1=O [Example 47, 4-Chloro-N-[5-(1-isopropyl-6-oxo-1,6-dihydro-3-pyridazinyl)-4-phenyl-1,3-thiazol-2-yl]benzamide] | 205 to 206 °C

Row | Structure (SMILES) | melting point
19 | CC(C)n1nc(-c2sc(NC(=O)c3ccc(F)cc3)nc2-c2ccccc2)ccc1=O [Example 48, 4-fluoro-N-[5-(1-isopropyl-6-oxo-1,6-dihydro-3-pyridazinyl)-4-phenyl-1,3-thiazol-2-yl]benzamide] | 225 to 226 °C
20 | CC(C)n1nc(-c2sc(NC(=O)c3c(Cl)cccc3Cl)nc2-c2ccccc2)ccc1=O [Example 49, 2,6-Dichloro-N-[5-(1-isopropyl-6-oxo-1,6-dihydro-3-pyridazinyl)-4-phenyl-1,3-thiazol-2-yl]benzamide] | 248 to 249 °C
21 | CC(C)n1nc(-c2sc(NC(=O)N(C)C)nc2-c2ccccc2)ccc1=O [Example 50, N′-[5-(1-Isopropyl-6-oxo-1,6-dihydro-3-pyridazinyl)-4-phenyl-1,3-thiazol-2-yl]-N,N-dimethylurea] | 199 to 200 °C
22 | CC(C)n1nc(-c2sc(NC(=O)c3ccc(I)cc3)nc2-c2ccccc2)ccc1=O [Example 51, 4-Iodo-N-[5-(1-isopropyl-6-oxo-1,6-dihydro-3-pyridazinyl)-4-phenyl-1,3-thiazol-2-yl]benzamide] | 253 to 254 °C
23 | CC(C)n1nc(-c2sc(NC(=O)N3CCCCC3)nc2-c2ccccc2)ccc1=O [Example 52, N-[5-(1-Isopropyl-6-oxo-1,6-dihydro-3-pyridazinyl)-4-phenyl-1,3-thiazol-2-yl]-1-piperidinecarboxamide] | 138 to 140 °C
24 | CC(C)n1nc(-c2sc(NC(=O)c3ccccc3OC(F)(F)F)nc2-c2ccccc2)ccc1=O [Example 53, N-[5-(1-Isopropyl-6-oxo-1,6-dihydro-3-pyridazinyl)-4-phenyl-1,3-thiazol-2-yl]-2-(trifluoromethoxy)benzamide] | 212 to 213 °C
25 | CC(C)n1nc(-c2sc(NC(=O)c3ccc(CCl)cc3)nc2-c2ccccc2)ccc1=O [Example 56, 4-(Chloromethyl)-N-[5-(1-isopropyl-6-oxo-1,6-dihydro-3-pyridazinyl)-4-phenyl-1,3-thiazol-2-yl]benzamide] | > 250 °C
26 | CC(C)n1nc(-c2sc(NC(=O)C3CC3)nc2-c2ccc(F)cc2)ccc1=O [Example 57, N-[4-(4-Fluorophenyl)-5-(1-isopropyl-6-oxo-1,6-dihydro-3-pyridazinyl)-1,3-thiazol-2-yl]cyclopropanecarboxamide] | 250 to 252 °C
27 | CC(C)CC(=O)Nc1nc(-c2ccccc2)c(-c2ccc(=O)n(C(C)C)n2)s1 [Example 58, N-[5-(1-Isopropyl-6-oxo-1,6-dihydro-3-pyridazinyl)-4-phenyl-1,3-thiazol-2-yl]-3-methylbutanamide] | 198 to 199 °C
28 | CC(C)n1nc(-c2sc(NC(C)(C)C)nc2-c2ccccc2)ccc1=O [Example 61, 6-[2-(tert-Butylamino)-4-phenyl-1,3-thiazol-5-yl]-2-isopropyl-3(2H)-pyridazinone] | 189 to 190 °C
29 | CCNc1nc(-c2ccccc2)c(-c2ccc(=O)n(C(C)C)n2)s1 [Example 62, 6-[2-(Ethylamino)-4-phenyl-1,3-thiazol-5-yl]-2-isopropyl-3(2H)-pyridazinone] | 167 to 169 °C
30 | CC(C)n1nc(-c2sc(NC(=N)N)nc2-c2ccccc2)ccc1=O [Example 63, N-[5-(1-Isopropyl-6-oxo-1,6-dihydro-3-pyridazinyl)-4-phenyl-1,3-thiazol-2-yl]guanidine] | > 250 °C
31 | CC(C)Nc1nc(-c2ccccc2)c(-c2ccc(=O)n(C(C)C)n2)s1 [Example 64, 2-Isopropyl-6-[2-(isopropylamino)-4-phenyl-1,3-thiazol-5-yl]-3(2H)-pyridazinone] | 138 to 139 °C
32 | CC(C)n1nc(-c2sc(NCc3ccccc3)nc2-c2ccccc2)ccc1=O [Example 65, 6-[2-(Benzylamino)-4-phenyl-1,3-thiazol-5-yl]-2-isopropyl-3 (2H)-pyridazinone] | 157 to 158 °C
33 | CC(C)n1nc(-c2sc(NCc3ccco3)nc2-c2ccccc2)ccc1=O [Example 66, 6-{2-[(2-Furylmethyl)amino]-4-phenyl-1,3-thiazol-5-yl}-2-isopropyl-3(2H)-pyridazinone] | 115 to 116 °C
34 | CC(C)n1nc(-c2sc(Nc3ccccn3)nc2-c2ccccc2)ccc1=O [Example 67, 2-Isopropyl-6-[4-phenyl-2-(2-pyridinylamino)-1,3-thiazol-5-yl]-3(2H)-pyridazinone] | 194 to 195 °C
35 | CC(C)n1nc(-c2sc(NCCCN3CCOCC3)nc2-c2ccccc2)ccc1=O [Example 68, 2-I sopropyl-6-(2-{[3-(4-morpholinyl)propyl]amino}-4-phenyl-1,3-thiazol-5-yl)-3(2H)-pyridazinone] | 194 to 195 °C
36 | CC(C)n1nc(-c2sc(NC3CCCCC3)nc2-c2ccccc2)ccc1=O [Example 70, 6-[2-(Cyclohexylamino)-4-phenyl-1,3-thiazol-5-yl]-2-isopropyl-3(2H)-pyridazinone] | 149 to 151 °C
